Experimental data: patent US20220348592A1, “FUSED HETEROCYCLIC DERIVATIVES” (Janssen Sciences Ireland Unlimited Company, priority 2019, published 2022)

Tests used:
HBV = test: Anti-HBV activity: intracellular HBV DNA by real-time PCR in HepG2.117 cell line; format: cell-based, Hepatitis B virus; settings: Hepatitis B virus, 72 h; HepG2.117 cells, 3 days of treatment, intracellular HBV DNA by real-time PCR, mean value; read-out: HBV-AVE-HepG2.117 EC50 (μM, mean value)
How it was run: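 HepG2.117 cells, a Tet-off inducible HBV-producing line, induced to replicate HBV and then treated with serially diluted compound. After 3 days, intracellular HBV DNA quantified by real-time PCR with HBV-specific primers and probe.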

[1] = Cytotoxicity in HepG2.117 cells, ATPlite Luminescence Assay; format: cell-based, human; settings: human, incubated for 3 days, mean value, read-out: TOX-HepG2.117 CC50 (μM, mean value)
Protocol: Cytotoxicity of the compounds was tested using HepG2 or HepG2.117 cells, incubated for 3 days in the presence of compounds. The viability of the cells was assessed using the PERKIN ELMER ATPlite Luminescence Assay System.”

Row | Compound | EC50 (HBV) [µM] | CC50 at 3 days [1] [µM]
1 | CC(C)Oc1ccc(CN2CCn3nc4c(c3C2=O)CN(C(=O)c2ccc(Cl)c(Cl)c2)[C@H](C)C4)cc1 [Example C164] | 0.039 | 4.29
2 | C[C@@H]1Cc2nn3c(c2CN1C(=O)c1ccc(Cl)c(Cl)c1)C(=O)N(Cc1ncoc1C(F)(F)F)CC3 [Example C169] | 0.831 | > 50
3 | C[C@@H]1Cc2nn3c(c2CN1C(=O)c1ccc(Cl)c(Cl)c1)C(=O)N([C@H](C)c1ccc(C(F)(F)F)cc1)CC3 (relative stereo) [C105*R] | 0.059 | 14.6
4 | C[C@@H]1Cc2nn3c(c2CN1C(=O)c1ccc(Cl)c(Cl)c1)C(=O)N(C)C[C@@H](F)C3 [Compound 44] | 0.079 | > 50
5 | COc1ccc(CN2CCn3nc4c(c3C2=O)CN(C(=O)c2ccc(Cl)c(C#N)c2)CC4)cc1 [Example C64] | 0.089 | > 49
6 | CC(c1nc(C2CC2)no1)N1CCn2nc3c(c2C1=O)CN(C(=O)c1ccc(Cl)c(Cl)c1)[C@H](C)C3 (some centres unmarked) [Example C190] | 0.115 | 33.1
7 | CC(c1cc(F)ccc1F)N1CCn2nc3c(c2C1=O)CN(C(=O)c1ccc(Cl)c(Cl)c1)[C@H](C)C3 (some centres unmarked) [Example C189] | 0.043 | 41.8
8 | C[C@@H]1Cc2nn3c(c2CN1C(=O)c1ccc(Cl)c(Cl)c1)C(=O)N(Cc1ccc(F)cn1)CC3 [Example C208] | 0.13 | > 50
9 | C[C@@H]1Cc2nn3c(c2CN1C(=O)c1ccc(Cl)c(Cl)c1)C(=O)N(Cc1nccn1C(F)F)CC3 [Example C133] | 0.332 | > 50
10 | COc1ccc(CN2CCn3nc4c(c3C2=O)CN(C(=O)c2ccc(Cl)c(Cl)c2)[C@H](C)C4)c(F)c1 [Example C168] | 0.046 | 6.11
11 | CC(C)c1nnc(CN2CCn3nc4c(c3C2=O)CN(C(=O)c2ccc(Cl)c(Cl)c2)[C@H](C)C4)o1 [Example C179] | 0.219 | > 50
12 | COc1ccc(CN2CCn3nc4c(c3C2=O)CN(C(=O)c2ccc(F)c(C#N)c2)CC4)cc1 [Example C52] | 0.995 | > 50
13 | COc1cccc(F)c1CN1CCn2nc3c(c2C1=O)CN(C(=O)c1ccc(Cl)c(Cl)c1)[C@H](C)C3 [Example C166] | 0.034 | 29.1
14 | C[C@@H]1Cc2nn3c(c2CN1C(=O)c1ccc(Cl)c(Cl)c1)C(=O)N([C@H](C)c1c[nH]nn1)CC3 (single isomer, unassigned) [Compound 31, (3R)-2-(3,4-Dichlorobenzoyl)-3-methyl-9-[(1*R)-1-(1H-1,2,3-triazol-4-yl)ethyl]-1,2,3,4,8,9-hexahydropyrido[4′,3′:3,4]pyrazolo[1,5-a]pyrazin-10(7H)-one] | 0.075 | > 50
15 | C=C1CN(CC(F)(F)F)C(=O)c2c3c(nn2C1)CCN(C(=O)c1ccc(Cl)c(Cl)c1)C3 [Compound 43, 2-(3,4-Dichlorobenzoyl)-8-methylidene-10-(2,2,2-trifluoroethyl)-1,2,3,4,7,8,9,10-octahydro-11H-pyrido[4′,3′:3,4]pyrazolo[1,5-a][1,4]diazepin-11-one] | 0.21 | > 50
16 | C[C@@H]1Cc2nn3c(c2CN1C(=O)c1ccc(Cl)c(Cl)c1)C(=O)N(Cc1cc(F)ccc1F)CC3 [Example C228] | 0.062 | 37.5
17 | C[C@@H]1Cc2nn3c(c2CN1C(=O)c1ccc(Cl)c(Cl)c1)C(=O)N(Cc1nccn1C)CC3 [Example C242] | 0.589 | > 50
18 | CN1CCCn2nc3c(c2C1=O)CN(C(=O)c1ccc(Cl)c(Cl)c1)CC3 [Compound 34, 2-(3,4-Dichlorobenzoyl)-10-methyl-1,2,3,4,7,8,9,10-octahydro-11H-pyrido[4′,3′:3,4]pyrazolo-[1,5-a][1,4]diazepin-11-one] | 1.38 | > 50
19 | C[C@@H]1Cc2nn3c(c2CN1C(=O)c1ccc(Cl)c(Cl)c1)C(=O)N(Cc1cc(C#N)c(F)cc1F)CC3 [Example C178] | 0.207 | > 50
20 | COc1ccc(C#N)cc1CN1CCn2nc3c(c2C1=O)CN(C(=O)c1ccc(Cl)c(Cl)c1)[C@H](C)C3 [Example C215] | 0.106 | > 50
21 | C[C@@H]1Cc2nn3c(c2CN1C(=O)c1cc2c(Cl)cccc2[nH]1)C(=O)N(Cc1ccccn1)CC3 [Example C96] | 0.025 | 10.7
22 | C[C@@H]1Cc2nn3c(c2CN1C(=O)c1cc2c(Cl)ccc(F)c2[nH]1)C(=O)N(Cc1ccccn1)CC3 [Example C117] | 0.119 | 18.2

Row | Compound | EC50 (HBV) [µM] | CC50 at 3 days [1] [µM]
23 | CC(c1cccc(OC(F)(F)F)c1)N1CCn2nc3c(c2C1=O)CN(C(=O)c1ccc(Cl)c(Cl)c1)[C@H](C)C3 (some centres unmarked) [Example C194] | 0.075 | 26.4
24 | Cc1ncsc1CN1CCn2nc3c(c2C1=O)CN(C(=O)c1ccc(Cl)c(Cl)c1)[C@H](C)C3 [Example C150] | 0.075 | > 50
25 | C[C@@H]1Cc2nn3c(c2CN1C(=O)c1ccc(Cl)c(Cl)c1)C(=O)N([C@@H](C)c1ccc(OC(F)F)cc1)CC3 [Compound 28, (3R)-2-(3,4-Dichlorobenzoyl)-9-{(1S)-1-[4-(difluoromethoxy)phenyl]ethyl}-3-methyl-1,2,3,4,8,9-hexahydropyrido[4′,3′:3,4]pyrazolo[1,5-a]pyrazin-10(7H)-one] | 0.057 | 16.7
26 | C[C@@H]1Cc2nn3c(c2CN1C(=O)c1ccc(Cl)c(Cl)c1)C(=O)N(Cc1ccnn1C)CC3 [Compound 18, (3R)-2-(3,4-Dichlorobenzoyl)-3-methyl-9-[(1-methyl-1H-pyrazol-5-yl)methyl]-1,2,3,4,8,9-hexahydropyrido[4′,3′:3,4]pyrazolo[1,5-a]pyrazin-10(7H)-one] | 0.252 | > 50
27 | Cc1cccnc1CN1CCn2nc3c(c2C1=O)CN(C(=O)c1ccc(Cl)c(Cl)c1)[C@H](C)C3 [Example C152] | 0.145 | > 50
28 | CC(c1ccccn1)N1CCn2nc3c(c2C1=O)CN(C(=O)c1ccc(Cl)c(Cl)c1)[C@H](C)C3 (some centres unmarked) [Example C99] | 0.072 | > 50
29 | C[C@@H]1Cc2nn3c(c2CN1C(=O)c1cc2c(Cl)c(F)ccc2[nH]1)C(=O)N(Cc1ccccn1)CC3 [Example C102] | 0.019 | 7.14
30 | COc1ccc(CN2CCCn3nc4c(c3C2=O)CN(C(=O)c2ccc(Cl)c(Cl)c2)CC4)cc1 [Compound 36, 2-(3,4-Dichlorobenzoyl)-10-[(4-methoxyphenyl)methyl]-1,2,3,4,7,8,9,10-octahydro-11H-pyrido[4′,3′:3,4]pyrazolo[1,5-a][1,4]diazepin-11-one] | 0.077 | 24.6
31 | C[C@@H]1Cc2nn3c(c2CN1C(=O)c1ccc(Cl)c(Cl)c1)C(=O)N(Cc1ccccc1OC(F)(F)F)CC3 [Example C174] | 0.18 | 15.3
32 | COc1ccc(CN2CCn3nc4c(c3C2=O)CN(C(=O)c2ccc(Cl)c(Cl)c2)[C@H](C)C4)cc1 [Compound 11, (3R)-2-(3,4-Dichlorobenzoyl)-9-[(4-methoxyphenyl)methyl]-3-methyl-1,2,3,4,8,9-hexahydro-pyrido[4′,3′:3,4]pyrazolo[1,5-a]pyrazin-10(7H)-one] | 0.054 | 8.43
33 | C[C@@H]1Cc2nn3c(c2CN1C(=O)c1cc2c(C(F)(F)F)c(F)ccc2[nH]1)C(=O)N(Cc1ccccn1)CC3 [Example C125] | 0.037 | > 50
34 | CCc1nnc(C(C)N2CCn3nc4c(c3C2=O)CN(C(=O)c2ccc(Cl)c(Cl)c2)[C@H](C)C4)o1 (some centres unmarked) [Example C220] | 0.077 | > 50
35 | CC(c1c(F)cccc1F)N1CCn2nc3c(c2C1=O)CN(C(=O)c1ccc(Cl)c(Cl)c1)[C@H](C)C3 (some centres unmarked) [Example C248] | 0.013 | 25
36 | O=C(c1ccc(Cl)c(Cl)c1)N1CCc2nn3c(c2C1)C(=O)N(Cc1c[nH]c2ccccc12)CC3 [Compound 8, 2-(3,4-Dichlorobenzoyl)-9-[(1H-indol-3-yl)methyl]-1,2,3,4,8,9-hexahydropyrido[4′,3′:3,4]-pyrazolo[1,5-a]pyrazin-10(7H)-one] | < 0.039 | 10.8
37 | COc1ccc(CN2CCn3nc4c(c3C2=O)CN(C(=O)c2ccc(Cl)c(Cl)c2)[C@H](C)C4)cc1C#N [Example C163] | 0.098 | > 50
38 | C[C@@H]1Cc2nn3c(c2CN1C(=O)c1ccc(Cl)c(Cl)c1)C(=O)N(Cc1ccc(C#N)cc1F)CC3 [Example C175] | 0.038 | 35.5
39 | CC(c1cccc(F)c1)N1CCn2nc3c(c2C1=O)CN(C(=O)c1ccc(Cl)c(Cl)c1)[C@H](C)C3 (some centres unmarked) [Example C188] | 0.04 | 49.6
40 | COc1ccc(CN2CC(NS(C)(=O)=O)Cn3nc4c(c3C2=O)CN(C(=O)c2ccc(Cl)c(Cl)c2)CC4)cc1 (centres unmarked) [Compound 41, N-{2-(3,4-Dichlorobenzoyl)-10-[(4-methoxyphenyl)methyl]-11-oxo-1,3,4,7,8,9,10,11-octahydro-2H-pyrido[4′,3′:3,4]pyrazolo[1,5-a][1,4]diazepin-8-yl}methanesulfonamide] | 0.328 | > 50
41 | C[C@@H]1Cc2nn3c(c2CN1C(=O)c1ccc(Cl)c(Cl)c1)C(=O)N(Cc1cc(F)cc(F)c1)CC3 [Example C196] | 0.048 | 38
42 | COc1ccc(CN2CCn3nc4c(c3C2=O)CN(C(=O)c2ccc(C(F)F)c(F)c2)CC4)cc1 [Example C68] | 0.321 | 10.6
43 | C[C@@H]1Cc2nn3c(c2CN1C(=O)c1ccc(Cl)c(Cl)c1)C(=O)N(Cc1cccc(C#N)c1F)CC3 [Example C231] | 0.09 | > 50
